Assay results reported in ChEMBL document CHEMBL1125122, “Antibacterials. Synthesis and structure-activity studies of 3-aryl-2-oxooxazolidines. 2. The "A" group” (1990).
≈ marks a conversion by molar mass, not a printed value.

Key:
Enterococcus faecalis = experiment: In vitro for antibacterial activity against Enterococcus faecalis strain STCO-19; format: functional
Staphylococcus aureus = experiment: In vitro for antibacterial activity against Staphylococcus aureus strain SFCO-1a; format: functional

Row | Structure (SMILES) | MIC (Enterococcus faecalis) [µg/mL] | MIC (Staphylococcus aureus) [µg/mL]
1 | CCS(=O)(=O)c1ccc(N2C[C@H](CNC(C)=O)OC2=O)cc1 | 8 (≈ 24.5 µM) | 8 (≈ 24.5 µM)
2 | CC(=O)NC[C@H]1CN(c2ccc(C)cc2)C(=O)O1 | 32 (≈ 129 µM) | 32 (≈ 129 µM)
3 | CC[S+]([O-])c1ccc(N2CC(CNC(C)=O)OC2=O)cc1 (single isomer, unassigned) | 16 (≈ 51.6 µM) | 16 (≈ 51.6 µM)
4 | CC(=O)NC[C@H]1CN(c2ccc(Br)cc2)C(=O)O1 | 8 (≈ 25.5 µM) | 16 (≈ 51.1 µM)
5 | COc1ccc(N2CC(CNC(C)=O)OC2=O)cc1 (racemic) | 32 (≈ 121 µM) | 32 (≈ 121 µM)
6 | CCCC(O)c1ccc(N2C[C@H](CNC(C)=O)OC2=O)cc1 (stereo partly specified) | 32 (≈ 104 µM) | 16 (≈ 52.2 µM)
7 | CC(=O)NCC1CN(c2ccc(F)cc2)C(=O)O1 (racemic) | > 64 | > 64
8 | CC(=O)NC[C@H]1CN(c2ccc([S@+](C)[O-])cc2)C(=O)O1 | 16 (≈ 54 µM) | 8 (≈ 27 µM)
9 | CCN(CC)c1ccc(N2C[C@H](CNC(C)=O)OC2=O)cc1 | 16 (≈ 52.4 µM) | 8 (≈ 26.2 µM)
10 | CC(=O)NC[C@H]1CN(c2ccc(I)cc2)C(=O)O1 | 8 (≈ 22.2 µM) | 8 (≈ 22.2 µM)
11 | CC(=O)NCC1CN(c2ccc(Oc3ccccc3)cc2)C(=O)O1 (racemic) | 64 (≈ 196 µM) | 64 (≈ 196 µM)
12 | CC(=O)NC[C@H]1CN(c2ccc(N(C)C)cc2)C(=O)O1 | 16 (≈ 57.7 µM) | 16 (≈ 57.7 µM)
13 | CC(=O)NC[C@H]1CN(c2ccc([S+]([O-])CF)cc2)C(=O)O1 (stereo partly specified) | 8 (≈ 25.5 µM) | 8 (≈ 25.5 µM)
14 | CC(=O)NC[C@H]1CN(c2ccc([N+](=O)[O-])cc2)C(=O)O1 | 2 (≈ 7.16 µM) | 2 (≈ 7.16 µM)
15 | CCC[S+]([O-])c1ccc(N2C[C@H](CNC(C)=O)OC2=O)cc1 (stereo partly specified) | 64 (≈ 197 µM) | 32 (≈ 98.6 µM)
16 | CC(=O)NCC1CN(c2ccc(C#N)cc2)C(=O)O1 (racemic) | 16 (≈ 61.7 µM) | 16 (≈ 61.7 µM)
17 | CC(=O)NCC1CN(c2ccc(Cl)cc2)C(=O)O1 (racemic) | 64 (≈ 238 µM) | 32 (≈ 119 µM)
18 | CC(=O)NCC1CN(c2ccc(CO)cc2)C(=O)O1 (racemic) | 16 (≈ 60.5 µM) | 32 (≈ 121 µM)

Row | Structure (SMILES) | MIC (Enterococcus faecalis) [µg/mL] | MIC (Staphylococcus aureus) [µg/mL]
19 | CCc1ccc(N2C[C@H](CNC(C)=O)OC2=O)cc1 | 8 (≈ 30.5 µM) | 4 (≈ 15.2 µM)
20 | CCCSc1ccc(N2C[C@H](CNC(C)=O)OC2=O)cc1 | 8 (≈ 25.9 µM) | 8 (≈ 25.9 µM)
21 | CCCS(=O)(=O)c1ccc(N2C[C@H](CNC(C)=O)OC2=O)cc1 | 32 (≈ 94 µM) | 32 (≈ 94 µM)
22 | CC(=O)NC[C@H]1CN(c2ccc(C(O)C(C)C)cc2)C(=O)O1 (stereo partly specified) | 8 (≈ 26.1 µM) | 4 (≈ 13.1 µM)
23 | CC(=O)NC[C@H]1CN(c2ccc(C=O)cc2)C(=O)O1 | 8 (≈ 30.5 µM) | 8 (≈ 30.5 µM)
24 | C=Cc1ccc(N2C[C@H](CNC(C)=O)OC2=O)cc1 | 8 (≈ 30.7 µM) | 4 (≈ 15.4 µM)
25 | CC(=O)NC[C@H]1CN(c2ccccc2)C(=O)O1 | 128 (≈ 546 µM) | 128 (≈ 546 µM)
26 | CC(=O)NC[C@H]1CN(c2ccc(C(=O)CBr)cc2)C(=O)O1 | 8 (≈ 22.5 µM) | 4 (≈ 11.3 µM)
27 | CC(=O)NCC(=O)c1ccc(N2C[C@H](CNC(C)=O)OC2=O)cc1 | 16 (≈ 48 µM) | 8 (≈ 24 µM)
28 | CC(=O)NC[C@H]1CN(c2ccc(/C=N\O)cc2)C(=O)O1 | 16 (≈ 57.7 µM) | 16 (≈ 57.7 µM)
29 | CC(=O)NC[C@H]1CN(c2ccc(C(F)(F)F)cc2)C(=O)O1 | 8 (≈ 26.5 µM) | 8 (≈ 26.5 µM)
30 | CC(=O)NC[C@H]1CN(c2ccc(Sc3ccccc3)cc2)C(=O)O1 | 128 (≈ 374 µM) | > 128
31 | C#Cc1ccc(N2C[C@H](CNC(C)=O)OC2=O)cc1 | 16 (≈ 61.9 µM) | 16 (≈ 61.9 µM)
32 | CCC(O)c1ccc(N2C[C@H](CNC(C)=O)OC2=O)cc1 (stereo partly specified) | 64 (≈ 219 µM) | 32 (≈ 109 µM)
33 | CC(=O)Cc1ccc(N2C[C@H](CNC(C)=O)OC2=O)cc1 | 8 (≈ 27.6 µM) | 4 (≈ 13.8 µM)
34 | CCCCOc1ccc(N2C[C@H](CNC(C)=O)OC2=O)cc1 | 16 (≈ 52.2 µM) | 8 (≈ 26.1 µM)
35 | CC(=O)NC[C@H]1CN(c2ccc(C(=O)CC#N)cc2)C(=O)O1 | 64 (≈ 212 µM) | 8 (≈ 26.6 µM)
36 | CC(=O)NC[C@H]1CN(c2ccc(N)cc2)C(=O)O1 | 128 (≈ 513 µM) | 128 (≈ 513 µM)

The remaining lines, values ahead:

Row | MIC (Enterococcus faecalis) [µg/mL] | MIC (Staphylococcus aureus) [µg/mL] | Structure (SMILES)
37 | 4 (≈ 12.5 µM) | 4 (≈ 12.5 µM) | CCC/C(=N/O)c1ccc(N2C[C@H](CNC(C)=O)OC2=O)cc1
38 | 2 (≈ 5.71 µM) | 2 (≈ 5.71 µM) | CC(=O)NC[C@H]1CN(c2ccc([S+]([O-])C(F)(F)F)cc2)C(=O)O1 (stereo partly specified)
39 | 2 (≈ 6.84 µM) | 2 (≈ 6.84 µM) | COC(=O)c1ccc(N2C[C@H](CNC(C)=O)OC2=O)cc1
40 | 0.5 (≈ 1.72 µM) | 1 (≈ 3.44 µM) | CCC(=O)c1ccc(N2C[C@H](CNC(C)=O)OC2=O)cc1
41 | 2 (≈ 6.89 µM) | 1 (≈ 3.44 µM) | CC(=O)NC[C@H]1CN(c2ccc(C(C)(C)C)cc2)C(=O)O1
42 | 2 (≈ 6.87 µM) | 4 (≈ 13.7 µM) | CC(=O)NC[C@H]1CN(c2ccc(/C(C)=N\O)cc2)C(=O)O1
43 | 1 (≈ 3.29 µM) | 1 (≈ 3.29 µM) | CC(=O)NC[C@H]1CN(c2ccc(C(=O)C(C)C)cc2)C(=O)O1
44 | 2 (≈ 6.79 µM) | 1 (≈ 3.4 µM) | CCSc1ccc(N2C[C@H](CNC(C)=O)OC2=O)cc1
45 | 4 (≈ 14.4 µM) | 4 (≈ 14.4 µM) | CC(=O)NC[C@H]1CN(c2ccc(C(C)O)cc2)C(=O)O1 (stereo partly specified)
46 | 4 (≈ 12 µM) | 4 (≈ 12 µM) | CC(=O)NC[C@H]1CN(c2ccc(SC(F)(F)F)cc2)C(=O)O1
47 | 0.25 (≈ 0.821 µM) | 0.25 (≈ 0.821 µM) | CCCC(=O)c1ccc(N2C[C@H](CNC(C)=O)OC2=O)cc1
48 | 4 (≈ 12.8 µM) | 4 (≈ 12.8 µM) | CC(=O)NC[C@H]1CN(c2ccc(S(C)(=O)=O)cc2)C(=O)O1
49 | 4 (≈ 13.8 µM) | 4 (≈ 13.8 µM) | CCCCc1ccc(N2CC(CNC(C)=O)OC2=O)cc1 (racemic)
50 | 2 (≈ 5.98 µM) | 0.5 (≈ 1.5 µM) | CC(=O)NC[C@H]1CN(c2ccc(C(=O)COC(C)=O)cc2)C(=O)O1
51 | 2 (≈ 5.46 µM) | 2 (≈ 5.46 µM) | CC(=O)NC[C@H]1CN(c2ccc(S(=O)(=O)C(F)(F)F)cc2)C(=O)O1
52 | 1 (≈ 3.03 µM) | 1 (≈ 3.03 µM) | CC(=O)NC[C@H]1CN(c2ccc(S(=O)(=O)CF)cc2)C(=O)O1
53 | 2 (≈ 6.8 µM) | 2 (≈ 6.8 µM) | CC(=O)NC[C@H]1CN(c2ccc(C(=O)CF)cc2)C(=O)O1
54 | 4 (≈ 14.3 µM) | 4 (≈ 14.3 µM) | CSc1ccc(N2C[C@H](CNC(C)=O)OC2=O)cc1
55 | 4 (≈ 13.5 µM) | 4 (≈ 13.5 µM) | CC(=O)NC[C@H]1CN(c2ccc([S+](C)[O-])cc2)C(=O)O1 (stereo partly specified)
56 | 2 (≈ 5.68 µM) | 2 (≈ 5.68 µM) | CC(=O)NC[C@H]1CN(c2ccc(C(F)(F)C(F)(F)F)cc2)C(=O)O1
57 | 2 (≈ 6.44 µM) | 0.5 (≈ 1.61 µM) | CC(=O)NC[C@H]1CN(c2ccc(C(=O)CCl)cc2)C(=O)O1
58 | 4 (≈ 13.1 µM) | 4 (≈ 13.1 µM) | CCOC(=O)c1ccc(N2CC(CNC(C)=O)OC2=O)cc1 (racemic)
59 | 4 (≈ 13.7 µM) | 2 (≈ 6.84 µM) | CC(=O)NC[C@H]1CN(c2ccc(C(C)(C)O)cc2)C(=O)O1
60 | 4 (≈ 13.5 µM) | 4 (≈ 13.5 µM) | CC(=O)NC[C@@H]1CN(c2ccc(S(C)=O)cc2)C(=O)O1 (stereo partly specified)
61 | 4 (≈ 14.5 µM) | 2 (≈ 7.24 µM) | CCCc1ccc(N2C[C@H](CNC(C)=O)OC2=O)cc1
62 | 1 (≈ 3.62 µM) | 0.5 (≈ 1.81 µM) | CC(=O)NC[C@H]1CN(c2ccc(C(C)=O)cc2)C(=O)O1 [DUP-721]
63 | 4 (≈ 14.5 µM) | 4 (≈ 14.5 µM) | CC(=O)NCC1CN(c2ccc(C(C)C)cc2)C(=O)O1 (racemic)
